Results from PMC11087509, “Multimodal binding and inhibition of bacterial ribosomes by the antimicrobial peptides Api137 and Api88” (Nature Communications, 2024).
Where a SMILES comes first, the peptide text is derived from it. The star is where a group is joined. Orn(α-tetramethylguanidino) = CN(C)C(=N[C@@H](CCCN)C(=O)*)N(C)C

How the values were obtained:
30S subunit = assay: Fluorescence polarization binding, 30S subunit; design: species or system E. coli; conditions: ratio 30S / 50S; cf-labeled
Procedure: (§1) Several hundred grams of log-phase cells were commercially produced and purchased. Cells were washed in buffer A (20 mmol/L HEPES (pH 7.6), 6 mmol/L MgAc2, 30 mmol/L AcOK, 4 mmol/L ß-mercaptoethanol) and lysed in an M-110L microfluidizer (Microfluidics) at 17,000 psi and 4 °C. Cell debris was removed by low-speed centrifugation (15,000× g, 10 min, 4 °C) to obtain S30 lysate. Crude ribosomes, mostly containing 70S ribosomes, were pelleted by ultracentrifugation (40,000× g, 17 h, 4 °C) and resuspended in buffer A. The 70S ribosomes were separated from 30S and 50S subunits by zonal ultracentrifugation (Beckman Ti-15; 6–40% sucrose gradient in buffer A, 44,000× g, 16 h, 4 °C). The 70S-containing fractions were collected, and the ribosomes were sedimented by ultracentrifugation (40,000× g, 17 h, 4 °C). […]
Dissociation constants (Kd) were determined using purified 70S ribosome, 50S or 30S subunit and cf-labeled peptides in ribosome preparation buffer. […] Fluorescence polarization was measured on a […]^TM microplate reader (Beckman Coulter, Krefeld, Germany) in the top reading position (λexc = 485 nm, λem = 535 nm). […]

50S subunit = biological target: T1, 50S subunit (Escherichia coli, UniProt P0A7M6+P0ADZ0+P60723+P61175); assay: Cryo-EM of 50S•Api137 and 50S•Api88 complexes; format: binding, E. coli; conditions: 50S 0.3 µM, peptide 30 µM, Tico buffer pH 7.6, room temperature, 20 min
T1 construct: Ribosomes were isolated from the E. coli strain MRE600; made in house; native subunits isolated in house
Procedure: as §1
Purified 50S subunits (0.3 µM) were incubated with Api137 or Api88 (30 µM) in Tico buffer (20 mM HEPES/KOH, pH 7.6, 30 mM AcOK, 6 mM Mg(AcO)2, 4 mM 2-mercaptoethanol) at room temperature for 20 min. The complexes were applied to glow-discharged (Pelco Easy Glow) holey carbon grids (400 Mesh Cu R2/2, Quantifoil MicroTools GmbH) and plunge-frozen in liquid ethane using a Vitrobot Mark IV (Thermo Fisher Scientific) device. […]

DnaK = conditions: read-out: Kd (DnaK); peer review response; cited from earlier work
From the text: We now introduce trigger factor in line 446 as “…molecular chaperone…” In addition, we hypothesize that Api88 binds to the ribosome within the contact area of TF, which interacts with uL23 and uL29, two proteins we report here as cross-linked to Api88.

uL22 and uL4 = conditions: cited from earlier work

Q: Which “binding to 30S subunit weaker compared to 50S subunit” value (30S subunit) does the source give for `CC[C@H](C)[C@H](NC(=O)[C@H](Cc1ccc(O)cc1)NC(=O)[C@@H](NC(=O)[C@@H]1CCCN1C(=O)[C@H](CCCNC(=N)N)NC(=O)[C@H](CC(N)=O)NC(=O)[C@H](CC(N)=O)NC(=O)[C@H](CCCN)N=C(N(C)C)N(C)C)C(C)C)C(=O)N1CCC[C@H]1C(=O)N[C@@H](CCCNC(=N)N)C(=O)N1CCC[C@H]1C(=O)N[C@@H](CCCNC(=N)N)C(=O)N1CCC[C@H]1C(=O)N1CCC[C@H]1C(=O)N[C@@H](Cc1c[nH]cn1)C(=O)N1CCC[C@H]1C(=O)N[C@@H](CCCNC(=N)N)C(=O)N[C@@H](CC(C)C)C(=O)O` [Api137] ({Orn(α-tetramethylguanidino)}-NNRPVYIPRPRPPHPRL-OH) here?
A: ~10 fold

Q: What about the “binding sites identified on 50S” value (50S subunit) of the same compound?
A: another apidaecin molecule in an unexpected location near the exit of the PET

Q: And the Kd (DnaK)?
A: ~5 µM

Q: And the “ribosomal proteins interacting (genetic screen)” value (uL22 and uL4)?
A: uL22 and uL4
